Test results taken from patent publication US8158143B2, “Systems for releasing active ingredients, based on biodegradable or biocompatible polymers with a shape memory effect” (Helmholtz-Zentrum Geesthacht Zentrum fuer Material- und …, priority 2000, dated 2012).

Assay: Drug release experiments (phosphate buffer pH 7, 37° C.)
Type: physicochemical
Method: Furthermore drug release tests were carried out with biodegradable matrix polymers. The above mentioned polyester methacrylate networks were loaded with 5% gentamicin and enoxazin, respectively. Samples having a size of 1×2 cm^2 were cut open and placed into a medium for release (4 ml phosphate buffer, pH 7). The pieces of the films were placed in tubes for a centrifuge, in a manner allowing the buffer solution to contact the films from all sides. The centrifuge tubes were placed into a shaking water bath at 37° C. and at predetermined intervals the medium for release was exchanged completely in order to determine the amount of the drug released. […] Samples are placed into polypropylene centrifuge vessels (which may be closed) of a volume of 15 ml and placed into contact with 4 ml of the releasing medium. […] The release experiment is carried out in a temperature controlled shaking water bath at 37° C. with 60 revolutions per minute. The temperature is controlled with an accuracy of ±0.1 K. […] The experiment is concluded when all of the drug has been released. The establishment of the release profile occurs by means of determination of the released drug by UV-Vis-spectroscopy. The resulting release profiles represent the arithmetical average from parallel experiments regarding the release from three samples of one material. If the experiment is terminated prior to the complete release of the drug from the matrix, a determination of the drug remaining in the polymer network becomes necessary. […] Using 5 ml chloroform the networks are swollen, and destroyed mechanically using a glass rod. Using additional 5 ml chloroform the swollen enoxacin containing fragments are extracted. With […] containing networks extraction is carried out using 5 ml 2-propanol. […] The content of drug remaining in the matrix is added to the content as determined with the release experiment.

[1] = from amorphous matrix N-LG(18)-10 (FIG. 4)
[2] = matrix based on paradioxanone and caprolactone, unmodified

drug release profile [1]	drug release profile at the beginning of the release [2]	time until plateau of release is reached [2]	Molecule	drug release profile (networks on the basis of polylactide-co-glycolide, segment Mn about 10000, 15 wt.-% glycolide content)
released more rapidly			CCOc1ccc2nc3cc(N)ccc3c(N)c2c1 [ethacridine lactate]	substantially linear release, with a slightly accelerated release at the beginning
step profile			O=C1CN(/N=C/c2ccc([N+](=O)[O-])o2)C(=O)N1 [nitrofurantoine]	
	rapid release (burst-effect)	within two days	gentamicin	
